Where two headings read alike, the source gives them in different places.

Here are results for 17 compounds from patent US12365674B2, “Inhibitors of histone deacetylase useful for the treatment or prevention of HIV infection” (Merck Sharp & Dohme LLC, priority 2019, dated 2025).

The test concerns KARN cells (Jurkat 2C4). In words: KARN assay (luciferase induction in latently HIV-infected Jurkat 2C4 cells). The class given is cell-based. To be noted: ~20 hr, luciferase induction relative to 2 μM SAHA (100%). The protocol: KARN cells (Jurkat 2C4) were licensed from the laboratory of Dr. John Karn, Case Western Reserve University, School of Medicine. The details regarding this cell line are published (Pearson, R., Kin, Y. K., Hokello, J., Lassen, K., Friedman, J., Tyagi, M., Karn, J., 2008, J. Virol. 82:12291-12303). The cells were grown in a T175 flask (Thermo Fisher, catalog number 159910) in RPMI 1640 containing L-glutamine and phenol red (Life Technologies, catalog number 11875-085), 5% heat inactivated fetal bovine serum (FBS; Life Technologies, catalog number 10100-147) and 100 μg/ml Penicillin-Streptomycin (Life Technologies, catalog number 15140-122) at 37° C. An atmosphere of 5% CO2 and 90% humidity was used for all culture work. Cells were split and reseeded into T175 flasks at a density of 0.2×10^6 cells/ml, in 40 ml of media, every 3-4 days.
Day 1: After the 3-4 day growth period, the cells were transferred from the T175 flask to a 50 ml conical tube and gently pelleted at 1000 rpm for 5 minutes. The supernatant was removed and the cells gently resuspended in assay media RPMI 1640 medium containing L-glutamine but without Phenol Red (Life Technologies, catalog number 11835-030), 5% FBS and 100 μg/ml Penicillin-Streptomycin, and then reseeded such that the original flask is now divided into two T175 flasks. These flasks were returned to the incubator.
Day 2: Cell Preparation: The next day, the cells were transferred from each T175 flask to an individual 50 ml conical tube and gently pelleted at 1000 rpm for 5 minutes. The cells were gently resuspended in assay media (30 ml) and pelleted again. The cell pellets were each resuspended in 30 ml of RPMI 1640 medium containing L-glutamine but without Phenol Red, 100 μg/ml Penicillin-Streptomycin and containing either 0.1% or 5% normal human serum (NHS; Biospecialty, Colmar, PA, catalog number 115-00 Anticoagulant free). The cells were counted using the ViCell (Beckman Coulter, Brea, CA) and diluted as necessary. A Multidrop (Combi, Thermo Scientific, Waltham, MA) with a sterile head was used to seed the cells into the wells of a 384-well solid black plate with lid (Perkin Elmer, Waltham, MA, catalog number 6007660) at 4000 cells/30 μl/well for the 5% NHS assay media and 6000 cells/30 μl/well for 0.1% NHS assay. The plates were covered and returned to the incubator prior to compound addition.
Compound Preparation: Solutions of control inhibitor suberoylanilide hydroxamic acid (SAHA; Sigma, catalog number SML0061) and test compounds in 100% DMSO were titrated into 384-well polypropylene plates (Labcyte, San Jose, CA, catalog number P-05525) using a 20-point dose response and 2-fold dilutions. The reference compounds, DMSO and SAHA were then added to the compound plate. Using the Access system (Labcyte), 120 nl of these inhibitor and control solutions were added to the individual wells of the plates containing the cells, and the plates were then returned to the incubator for ˜20 hr (range from 18-24 hr). The final high concentration for SAHA and the test compounds in the assays was 40 μM. The final DMSO concentration in all wells was 0.4%. The minimal induction reference compound used was DMSO and the maximal induction reference compound used was SAHA (2 μM final concentration in the assay).
Day 3: The luciferase detection reagent was prepared by transferring the contents of one bottle of Steady-Glo buffer to one bottle of Steady-Glo substrate (Steady-Glo Luciferase Assay System, Promega, Madison, […], catalog number E2520), followed by gently mixing until the substrate was thoroughly dissolved and the solution was equilibrated to room temperature. The cell culture assay plates were removed from the incubator and brought to room temperature (15 min). The Steady-Glo Reagent was added to the plates (30 μl/well), which were then covered with a black lid and incubated for 10 minutes at room temperature. […]

Where [1] appears, read: 0.1% normal human serum, 6000 cells/well, read-out: Karn 0.1% NHS.
The mark [2] stands for this setting: 5% normal human serum, 4000 cells/well, read-out: Karn 5% NHS.

Regarding `COc1nc2ccccc2cc1-c1cnc([C@H](COCCCC(=O)c2ncco2)NC(=O)CN(C)C)[nH]1` [Compound 13, N-{(1R)-1-[5-(2-methoxyquinolin-3-yl)-1H-imidazol-2-yl]-2-[4-(1,3-oxazol-2-yl)-4-oxobutoxy]ethyl}-N~2~,N~2~- dimethylglycinamide], the EC50 reads like this: under setting [1], 424 nM; under setting [2], 854 nM.
On the same counts, the results for `COc1nc2ccccc2cc1-c1cnc([C@H](COCCCC(=O)c2ncco2)NC(=O)C23CCN(CC2)CC3)[nH]1` [Compound 12, N-{(1R)-1-[5-(2-methoxyquinolin-3-yl)-1H-imidazol-2-yl]-2-[4-(1,3-oxazol-2-yl)-4-oxobutoxy]ethyl}-1-azabicyclo[2.2.2]octane-4-carboxamide] are 252 nM and 562 nM.
On the same counts, the results for `COc1cc2nc(C)ccc2cc1-c1cnc([C@H](COCCCC(=O)c2cc(C)on2)NC(=O)[C@H]2CC23CCN(C)CC3)[nH]1` [Compound 20, (1S)-N-{(1R)-1-[5-(7-methoxy-2-methylquinolin-6-yl)-1H-imidazol-2-yl]-2-[4-(5-methylisoxazol-3-yl)-4-oxobutoxy]ethyl}-6-methyl-6-azaspiro[2.5]octane-1-carboxamide] are 40.5 nM and 55.1 nM.
On the same counts, the results for `Cc1ccc2cc(-c3cnc([C@H](CSCCCC(=O)c4ncco4)NC(=O)[C@H]4CC45CCN(C)CC5)[nH]3)ccc2n1` [Compound 21, (1S)-6-methyl-N-[(1R)-1-[5-(2-methylquinolin-6-yl)-1H-imidazol-2-yl]-2-{[4-(1,3-oxazol-2-yl)-4-oxobutyl]sulfanyl}ethyl]-6-azaspiro[2.5]octane-1-carboxamide] are 60.7 nM and 64.4 nM.
With `COc1nc2ccccc2cc1-c1cnc([C@H](COCCCC(=O)c2ccon2)NC(=O)CN(C)C)[nH]1` [Compound 14, N-{(1R)-2-(4-isoxazol-3-yl-4-oxobutoxy)-1-[5-(2-methoxyquinolin-3-yl)-1H-imidazol-2-yl]ethyl}-N~2~,N~2~- dimethylglycinamide], the EC50 came out at 83.8 nM under setting [1] and 252 nM under setting [2].
For `CCC(=O)CCCOC[C@H](NC(=O)C12CCN(CC1)CC2)c1ncc(-c2cc3ccccc3nc2OC)[nH]1` [Compound 6, N-{(1R)-1-[5-(2-methoxyquinolin-3-yl)-1H-imidazol-2-yl]-2-[(4-oxohexyl)oxy]ethyl}-1-azabicyclo[2.2.2]octane-4-carboxamide], the EC50 turned out to be 8970 nM under setting [1] and 14500 nM under setting [2].
On the same counts, the results for `CN1CC(C(=O)N[C@@H](COCCCC(=O)c2ccon2)c2ncc(-c3ccccc3F)[nH]2)C1` [Compound 15, N-[(1R)-1-[5-(2-fluorophenyl)-1H-imidazol-2-yl]-2-(4-isoxazol-3-yl-4-oxobutoxy)ethyl]-1-methylazetidine-3-carboxamide] are 539 nM and 548 nM.
For `CN1CCC2(CC1)C[C@@H]2C(=O)N[C@@H](COCCCC(=O)c1ccon1)c1[nH]c(-c2ccc(F)cc2)nc1Cl` [Compound 18, (1S)-N-[(1R)-1-[4-chloro-2-(4-fluorophenyl)-1H-imidazol-5-yl]-2-(4-isoxazol-3-yl-4-oxobutoxy)ethyl]-6-methyl-6-azaspiro[2.5]octane-1-carboxamide], the EC50 is, setting by setting: under setting [1], 77.7 nM; under setting [2], 109 nM.
Consider `CN(C)CC(=O)N[C@@H](COCCCC(=O)c1ccon1)c1[nH]c(-c2ccc(F)cc2)nc1Cl` [Compound 17, N-[(1R)-1-[4-chloro-2-(4-fluorophenyl)-1H-imidazol-5-yl]-2-(4-isoxazol-3-yl-4-oxobutoxy)ethyl]-N~2~,N~2~- dimethylglycinamide], for which the EC50 came to 1490 nM under setting [1] and 2420 nM under setting [2].
For the compound `CNC(=O)C(=O)CCCOC[C@H](NC(=O)C12CCN(CC1)CC2)c1ncc(-c2cc3ccccc3nc2OC)[nH]1` [Compound 9, N-[(1R)-1-[5-(2-methoxyquinolin-3-yl)-1H-imidazol-2-yl]-2-{[5-(methylamino)-4,5-dioxopentyl]oxy}ethyl]-1-azabicyclo[2.2.2]octane-4-carboxamide], the EC50 turned out to be 232 nM under setting [1] and 466 nM under setting [2].
`COc1nc2ccccc2cc1-c1cnc([C@H](COCCCC(=O)c2ncco2)NC(=O)c2cncs2)[nH]1` [Compound 10, N-{(1R)-1-[5-(2-methoxyquinolin-3-yl)-1H-imidazol-2-yl]-2-[4-(1,3-oxazol-2-yl)-4-oxobutoxy]ethyl}-1,3-thiazole-5-carboxamide]: the EC50 reads like this: under setting [1], 295 nM; under setting [2], 1500 nM.
For `CNC(=O)C(=O)CCCOC[C@H](NC(=O)c1cncs1)c1ncc(-c2cc3ccccc3nc2OC)[nH]1` [Compound 8, N-[(1R)-1-[5-(2-methoxyquinolin-3-yl)-1H-imidazol-2-yl]-2-{[5-(methylamino)-4,5-dioxopentyl]oxy}ethyl]-1,3-thiazole-5-carboxamide], the EC50 reads like this: under setting [1], 80.2 nM; under setting [2], 408 nM.
On to `CN1CC(C(=O)N[C@@H](COCCCC(=O)c2ccon2)c2[nH]c(-c3ccc(F)cc3)nc2Cl)C1` [Compound 16, N-[(1R)-1-[4-chloro-2-(4-fluorophenyl)-1H-imidazol-5-yl]-2-(4-isoxazol-3-yl-4-oxobutoxy)ethyl]-1-methylazetidine-3-carboxamide], for which the EC50 reads like this: under setting [1], 979 nM; under setting [2], 1100 nM.
On the same counts, the results for `COc1nc2ccccc2cc1-c1cnc([C@H](COCCCC(=O)c2ncco2)NC(=O)[C@H]2CC23CCN(C)CC3)[nH]1` [Compound 11, (1S)-N-{(1R)-1-[5-(2-methoxyquinolin-3-yl)-1H-imidazol-2-yl]-2-[4-(1,3-oxazol-2-yl)-4-oxobutoxy]ethyl}-6-methyl-6-azaspiro[2.5]octane-1-carboxamide] are 59.8 nM and 218 nM.
Consider `CCC(=O)CCCOC[C@H](NC(=O)[C@H]1CC12CCN(CC)CC2)c1ncc(-c2cc3ccccc3nc2OC)[nH]1` [Compound 7, (1S)-6-ethyl-N-{(1R)-1-[5-(2-methoxyquinolin-3-yl)-1H-imidazol-2-yl]-2-[(4-oxohexyl)oxy]ethyl}-6-azaspiro[2.5]octane-1-carboxamide], for which the EC50 by setting is: under setting [1], 2350 nM; under setting [2], 3500 nM.
Turning to `COc1nc2ccccc2cc1-c1cnc([C@@H](N)COCCCC(=O)c2ncco2)[nH]1` [Compound 1, (R)-4-(2-amino-2-(5-(2-methoxyquinolin-3-yl)-1H-imidazol-2-yl)ethoxy)-1-(oxazol-2-yl)butan-1-one], under setting [1], the EC50 was 11700 nM.
As to `COc1cc2nc(C)ccc2cc1-c1cnc([C@H](COCCCC(=O)c2cc(C)on2)NC(=O)C2CN(C)C2)[nH]1` [Compound 19, N-{(1R)-1-[5-(7-methoxy-2-methylquinolin-6-yl)-1H-imidazol-2-yl]-2-[4-(5-methylisoxazol-3-yl)-4-oxobutoxy]ethyl}-1-methylazetidine-3-carboxamide], the EC50 under setting [1] turned out to be 374 nM and the EC50 under setting [2] was found to be 449 nM.
